Measured values: patent US12052991B2, “Substituted pyridinyloxybenzenes and salts thereof and use thereof as herbicidal agents” (Bayer Aktiengesellschaft, priority 2018, dated 2024)

What was measured:
Type in all cases: in vivo
[1] = tested on: Poa annua (POAAN); assay: Herbicidal post-emergence action (Table B3); settings: rated visually after about 3 weeks, 100% = plants have died, 0% = like control plants
Method in brief: (§1)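 Weeds grown from seed in sandy loam in the greenhouse were sprayed at the one-leaf stage, 2 to 3 weeks after sowing, with WP or EC formulations in water plus 0.5% additive at 600 L/ha. Rates corresponded to 1280 or 320 g/ha; damage was rated visually versus untreated controls after about 3 weeks.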

[2] = tested on: Abutilon theophrasti (ABUTH); assay: Herbicidal post-emergence action (Table B5); settings: rated visually after about 3 weeks, 100% = plants have died, 0% = like control plants
Method in brief: as §1

[3] = tested on: Amaranthus retroflexus (AMARE); assay: Herbicidal post-emergence action (Table B6); settings: visual rating about 3 weeks after treatment, 100% = plants have died, 0% = like control plants
Method in brief: as §1

[4] = tested on: Matricaria inodora (MATIN); assay: Herbicidal post-emergence action (Table B7); settings: rated visually after about 3 weeks, 100% = plants have died, 0% = like control plants
Experimental: Seeds of mono- and dicotyledonous weed plants were placed in plastic pots in sandy loam soil (doubly sown with in each case one species of mono- or dicotyledonous weed plants per pot), covered with soil and cultivated in a greenhouse under controlled growth conditions. 2 to 3 weeks after sowing, the test plants were treated at the one-leaf stage. The compounds of the invention, formulated in the form of wettable powders (WP) or as emulsion concentrates (EC), were applied onto the green parts of the plants as aqueous suspension or emulsion with addition of 0.5% additive at a water application rate of 600 liters per hectare (converted). After the test plants had been kept in the greenhouse under optimum growth conditions for about 3 weeks, the activity of the preparations was rated visually in comparison to untreated controls. For example, 100% activity=the plants have died, 0% activity=like control plants. Tables B1 to B12 below show the effects of selected compounds of the general formula (I) according to Table 1 on various harmful plants and an application rate corresponding to 1280 or 320 g/ha, which were obtained by the experimental procedure mentioned above.

[5] = tested on: Stellaria media (STEME); assay: Herbicidal post-emergence action (Table B8); settings: dosage 1280 g/ha; visual rating about 3 weeks after treatment; 100% = plants have died, 0% = like control plants
Method in brief: as §1

[6] = tested on: Veronica persica (VERPE); assay: Herbicidal post-emergence action (Table B12); settings: visual rating about 3 weeks after treatment, 100% = plants have died, 0% = like control plants
Method in brief: as §1

[7] = tested on: Poa annua (POAAN); assay: Herbicidal pre-emergence action, test C (Table C3); settings: visual scoring after about 3 weeks, 100% = plants have died, 0% = like control plants
Method in brief: (§2)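 Sandy loam, doubly sown pots; surface spray pre-emergence; 1280 or 320 g/ha; 0.5% additive; 600 L/ha. Greenhouse, ~3 weeks. Visual % vs untreated.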

[8] = tested on: Setaria viridis (SETVI); assay: Herbicidal pre-emergence action, test C (Table C4); settings: dosage 1280 g/ha; visual scoring after about 3 weeks; 100% = plants have died, 0% = like control plants
Method in brief: as §2

[9] = tested on: Amaranthus retroflexus (AMARE); assay: Herbicidal pre-emergence action, test C (Table C6); settings: visual scoring after about 3 weeks, 100% = plants have died, 0% = like control plants
Method in brief: as §2

[10] = tested on: Alopecurus myosuroides (ALOMY); assay: Herbicidal pre-emergence action, test C (Table C9); settings: dosage 1280 g/ha; visual scoring after about 3 weeks; 100% = plants have died, 0% = like control plants
Method in brief: as §2

[11] = tested on: Digitaria sanguinalis (DIGSA); assay: Herbicidal pre-emergence action, test C (Table C10); settings: visual scoring after about 3 weeks, 100% = plants have died, 0% = like control plants
Method in brief: as §2

[12] = tested on: Veronica persica (VERPE); assay: Herbicidal pre-emergence action, test C (Table C12); settings: dosage 1280 g/ha, visual scoring vs untreated controls
Method in brief: as §2

[13] = tested on: harmful plants ABUTH, AMARE, ECHCG, LOLRI, MATIN, POAAN, SETVI, STEME, ALOMY, DIGSA, KCHSC and VERPE; assay: Herbicidal post-emergence action, summary of Tables B1-B12; settings: application rate of 1280 or 320 g of active ingredient per hectare; summary in words
Method in brief: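 Greenhouse weeds in sandy loam treated post-emergence at the one-leaf stage, 2–3 weeks after sowing, with WP or EC formulations sprayed with 0.5% additive at 600 L/ha water, 1280 or 320 g/ha. Damage rated visually after about 3 weeks versus untreated controls (0% = like control, 100% = dead).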

[14] = tested on: harmful plants ABUTH, AMARE, ECHCG, LOLRI, MATIN, POAAN, SETVI, STEME, ALOMY, DIGSA, KCHSC and VERPE; assay: Herbicidal pre-emergence action (test C), summary of Tables C1-C12; settings: application rate of 1280 or 320 g of active ingredient per hectare; summary in words
Method in brief: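 Pre-emergence pot test in sandy loam: WP or EC formulations were sprayed onto the covering soil with 0.5% additive at 600 L/ha water, at 1280 or 320 g/ha. Plants were kept in the greenhouse, and activity was rated visually about 3 weeks later as % versus untreated controls (100% = dead).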

[15] = tested on: Echinochloa crus-galli (ECHCG); assay: Herbicidal post-emergence action (Table B1); settings: 1280 g/ha; rated visually after about 3 weeks; 100% = plants have died, 0% = like control plants
Method in brief: as §1

[16] = tested on: Alopecurus myosuroides (ALOMY); assay: Herbicidal post-emergence action (Table B9); settings: 1280 g/ha; rated visually after about 3 weeks; 100% = plants have died, 0% = like control plants
Method in brief: as §1

Fc1cc(Cl)cnc1Oc1ccccc1-c1ccc(Cl)cn1 [Example 1-74]
Post-emergence action against Poa annua (POAAN) ([1]; 320 g/ha): 100%
Post-emergence action against Poa annua (POAAN) ([1]; 1280 g/ha): 100%
Post-emergence action against Abutilon theophrasti (ABUTH) ([2]; 320 g/ha): 90%
Post-emergence action against Abutilon theophrasti (ABUTH) ([2]; 1280 g/ha): 100%
Post-emergence action against Amaranthus retroflexus (AMARE) ([3]; dosage 320 g/ha): 100%
Post-emergence action against Amaranthus retroflexus (AMARE) ([3]; dosage 1280 g/ha): 100%
Post-emergence action against Matricaria inodora (MATIN) ([4]; 320 g/ha): 100%
Post-emergence action against Matricaria inodora (MATIN) ([4]; 1280 g/ha): 100%
Post-emergence action against Stellaria media (STEME) [5]: 90%
Post-emergence action against Veronica persica (VERPE) ([6]; dosage 320 g/ha): 100%
Post-emergence action against Veronica persica (VERPE) ([6]; dosage 1280 g/ha): 100%
Pre-emergence action against Poa annua (POAAN) ([7]; dosage 320 g/ha): 100%
Pre-emergence action against Poa annua (POAAN) ([7]; dosage 1280 g/ha): 100%
Pre-emergence action against Setaria viridis (SETVI) [8]: 100%
Pre-emergence action against Amaranthus retroflexus (AMARE) ([9]; dosage 320 g/ha): 90%
Pre-emergence action against Amaranthus retroflexus (AMARE) ([9]; dosage 1280 g/ha): 90%
Pre-emergence action against Alopecurus myosuroides (ALOMY) [10]: 100%
Pre-emergence action against Digitaria sanguinalis (DIGSA) ([11]; dosage 320 g/ha): 90%
Pre-emergence action against Digitaria sanguinalis (DIGSA) ([11]; dosage 1280 g/ha): 100%
Pre-emergence action against Veronica persica (VERPE) [12]: 90%
herbicidal activity against the harmful plants of Tables B1-B12 in post-emergence treatment [13]: very good herbicidal activity
herbicidal activity against the harmful plants of Tables C1-C12 in pre-emergence treatment [14]: very good herbicidal activity

Clc1ccc(Oc2ccccc2-c2ccc(Cl)cn2)nc1 [Example 1-75]
Post-emergence action against Echinochloa crus-galli (ECHCG) [15]: 100%
Post-emergence action against Matricaria inodora (MATIN) ([4]; 1280 g/ha): 100%
Post-emergence action against Alopecurus myosuroides (ALOMY) [16]: 90%
Post-emergence action against Veronica persica (VERPE) ([6]; dosage 1280 g/ha): 100%
herbicidal activity against the harmful plants of Tables B1-B12 in post-emergence treatment [13]: very good herbicidal activity
